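GI50 marks 50% less growth. At the TGI there is no net growth.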
Columns and labels:
Test in all cases: NCI tumour cell line growth inhibition, 384-well format
786-0 renal = test system: 786-0 renal
A498 renal = test system: A498 renal
ACHN renal = test system: ACHN renal
BT-549 breast = test system: BT-549 breast
CCRF-CEM leukemia = test system: CCRF-CEM leukemia
COLO 205 colon = test system: COLO 205 colon
DU-145 prostate = test system: DU-145 prostate
EKVX NSCLC = test system: EKVX NSCLC
HCC-2998 colon = test system: HCC-2998 colon
HCT-15 colon = test system: HCT-15 colon
HL-60(TB) leukemia = test system: HL-60(TB) leukemia
HOP-62 NSCLC = test system: HOP-62 NSCLC
HS 578T breast = test system: HS 578T breast
HT29 colon = test system: HT29 colon
KM12 colon = test system: KM12 colon
LOX IMVI melanoma = test system: LOX IMVI melanoma
M14 melanoma = test system: M14 melanoma
MALME-3M melanoma = test system: MALME-3M melanoma
MCF7 breast = test system: MCF7 breast
MDA-MB-231 breast = test system: MDA-MB-231 breast
MDA-MB-435 melanoma = test system: MDA-MB-435 melanoma
MOLT-4 leukemia = test system: MOLT-4 leukemia
NCI-H23 lung = test system: NCI-H23 lung
NCI-H322M lung = test system: NCI-H322M lung
NCI-H460 NSCLC = test system: NCI-H460 NSCLC
NCI-H522 lung = test system: NCI-H522 lung
NCI/ADR-RES ovarian = test system: NCI/ADR-RES ovarian
OVCAR-3 ovarian = test system: OVCAR-3 ovarian
OVCAR-4 ovarian = test system: OVCAR-4 ovarian
OVCAR-5 ovarian = test system: OVCAR-5 ovarian
OVCAR-8 ovarian = test system: OVCAR-8 ovarian
PC-3 prostate = test system: PC-3 prostate
RPMI-8226 leukemia = test system: RPMI-8226 leukemia
RXF 393 renal = test system: RXF 393 renal
SF-268 CNS = test system: SF-268 CNS
SF-295 CNS = test system: SF-295 CNS
SF-539 CNS = test system: SF-539 CNS
SK-MEL-2 melanoma = test system: SK-MEL-2 melanoma
SK-MEL-28 melanoma = test system: SK-MEL-28 melanoma
SK-MEL-5 melanoma = test system: SK-MEL-5 melanoma
SK-OV-3 ovarian = test system: SK-OV-3 ovarian
SN12C renal = test system: SN12C renal
SNB-75 CNS = test system: SNB-75 CNS
SW-620 colon = test system: SW-620 colon
T-47D breast = test system: T-47D breast
TK-10 renal = test system: TK-10 renal
U251 glioblastoma = test system: U251 glioblastoma
UACC-257 melanoma = test system: UACC-257 melanoma
UACC-62 melanoma = test system: UACC-62 melanoma

C[C@@H](Oc1ccc2[nH]nc(/C=C/c3cnn(CCO)c3)c2c1)c1c(Cl)cncc1Cl
GI50 (786-0 renal): 214 nM
TGI (786-0 renal): 1200 nM
GI50 (A498 renal): 171 nM
TGI (A498 renal): > 100000 nM
GI50 (ACHN renal): 85.8 nM
TGI (ACHN renal): > 100000 nM
GI50 (BT-549 breast): 61.2 nM
TGI (BT-549 breast): 229 nM
GI50 (CCRF-CEM leukemia): 25.5 nM
TGI (CCRF-CEM leukemia): 60.5 nM
GI50 (COLO 205 colon): 24.8 nM
TGI (COLO 205 colon): 105 nM
GI50 (DU-145 prostate): 97.2 nM
TGI (DU-145 prostate): 755 nM
GI50 (EKVX NSCLC): 36.8 nM
TGI (EKVX NSCLC): 757 nM
GI50 (HCC-2998 colon): 399 nM
TGI (HCC-2998 colon): 2120 nM
GI50 (HCT-15 colon): 117 nM
TGI (HCT-15 colon): 1250 nM
GI50 (HL-60(TB) leukemia): 31.7 nM
TGI (HL-60(TB) leukemia): 131 nM
GI50 (HOP-62 NSCLC): 82 nM
TGI (HOP-62 NSCLC): 1080 nM
GI50 (HS 578T breast): 29.7 nM
TGI (HS 578T breast): 229 nM
GI50 (HT29 colon): 278 nM
TGI (HT29 colon): > 100000 nM
GI50 (KM12 colon): < 10 nM
TGI (KM12 colon): 145 nM
GI50 (LOX IMVI melanoma): 70 nM
TGI (LOX IMVI melanoma): 199 nM
GI50 (M14 melanoma): 331 nM
TGI (M14 melanoma): 2040 nM
GI50 (MALME-3M melanoma): 1120 nM
TGI (MALME-3M melanoma): 2340 nM
GI50 (MCF7 breast): 46.3 nM
TGI (MCF7 breast): 1600 nM
GI50 (MDA-MB-231 breast): 161 nM
TGI (MDA-MB-231 breast): 3450 nM
GI50 (MDA-MB-435 melanoma): 1140 nM
TGI (MDA-MB-435 melanoma): 2500 nM
GI50 (MOLT-4 leukemia): 19.5 nM
TGI (MOLT-4 leukemia): 48.8 nM
GI50 (NCI-H23 lung): 43.3 nM
TGI (NCI-H23 lung): 333 nM
GI50 (NCI-H322M lung): 331 nM
TGI (NCI-H322M lung): 2480 nM
GI50 (NCI-H460 NSCLC): 37 nM
TGI (NCI-H460 NSCLC): 1090 nM
GI50 (NCI-H522 lung): 31 nM
TGI (NCI-H522 lung): 554 nM
GI50 (NCI/ADR-RES ovarian): 227 nM
TGI (NCI/ADR-RES ovarian): 1410 nM
GI50 (OVCAR-3 ovarian): 74.5 nM
TGI (OVCAR-3 ovarian): 1570 nM
GI50 (OVCAR-4 ovarian): 1500 nM
TGI (OVCAR-4 ovarian): 4750 nM
GI50 (OVCAR-5 ovarian): 111 nM
TGI (OVCAR-5 ovarian): 475 nM
GI50 (OVCAR-8 ovarian): 174 nM
TGI (OVCAR-8 ovarian): 1450 nM
GI50 (PC-3 prostate): 1280 nM
TGI (PC-3 prostate): > 100000 nM
GI50 (RPMI-8226 leukemia): 34.3 nM
TGI (RPMI-8226 leukemia): 1330 nM
GI50 (RXF 393 renal): 54.4 nM
TGI (RXF 393 renal): 230 nM
GI50 (SF-268 CNS): 124 nM
TGI (SF-268 CNS): 384 nM
GI50 (SF-295 CNS): 71.1 nM
TGI (SF-295 CNS): 2060 nM
GI50 (SF-539 CNS): 23.7 nM
TGI (SF-539 CNS): 154 nM
GI50 (SK-MEL-2 melanoma): 606 nM
TGI (SK-MEL-2 melanoma): 2130 nM
GI50 (SK-MEL-28 melanoma): 1310 nM
TGI (SK-MEL-28 melanoma): 2630 nM
GI50 (SK-MEL-5 melanoma): 510 nM
TGI (SK-MEL-5 melanoma): 1920 nM
GI50 (SK-OV-3 ovarian): 114 nM
GI50 (SN12C renal): 47.7 nM
TGI (SN12C renal): 343 nM
GI50 (SNB-75 CNS): 23.4 nM
TGI (SNB-75 CNS): 213 nM
GI50 (SW-620 colon): 60.5 nM
TGI (SW-620 colon): 469 nM
GI50 (T-47D breast): 263 nM
TGI (T-47D breast): > 100000 nM
GI50 (TK-10 renal): 98.6 nM
TGI (TK-10 renal): 606 nM
GI50 (U251 glioblastoma): 156 nM
TGI (U251 glioblastoma): 766 nM
GI50 (UACC-257 melanoma): 1150 nM
TGI (UACC-257 melanoma): 2530 nM
GI50 (UACC-62 melanoma): 1290 nM
TGI (UACC-62 melanoma): 2590 nM
